Where a name gives a salt, the structure may show the parent alone. Read-outs that look alike come from different tables or passages of the source.
Columns and labels:
Full-length human PRMT8 = biological target: T1, Full-length human PRMT8 (Homo sapiens, UniProt Q9NR22); assay: PRMT8 biochemical assay (3H-SAM Flashplate, peptide substrate)
T1 construct: Full-length human PRMT8 (NM_019854.4) isoform 1 transcript clone; made in house
Source text: General Materials. S-adenosylmethionine (SAM), S-adenosylhomocysteine (SAH), bicine, Tween20, dimethylsulfoxide (DMSO), bovine skin gelatin (BSG), isopropyl-β-D-thiogalactopyranoside (IPTG), and Tris(2-carboxyethyl)phosphine hydrochloride solution (TCEP) were purchased from Sigma-Aldrich at the highest level of purity possible. ^3H-SAM was purchase from American Radiolabeled Chemicals with a specific activity of 80 Ci/mmol. 384-well streptavidin Flashplates were purchased from PerkinElmer.
Substrates. Peptide representative of human histone H4 residues 31-45 was synthesized with an N-terminal linker-affinity tag motif and a C-terminal amide cap by 21st Century Biochemicals.
Protein Expression. E. coli (BL21(DE3) Gold, Stratagene) made competent by the CaCl2 method were transformed with the PRMT8 construct and ampicillin selection. Protein over-expression was accomplished by growing the PRMT8 expressing E. coli clone and inducing expression with 0.3 mM IPTG at 16° C. The culture was grown for 12 hours, harvested by centrifugation, and stored at −80° C. for purification.
Protein Purification. […] GST-tagged PRMT8 was eluted with 50 mM Tris, 2 mM glutathione, pH 7.8. Pooled fractions were cleaved by thrombin (10 U) and dialysed in buffer A. GST was removed by reloading the cleaved protein sample onto glutathione sepharose column and PRMT8 was collected in the flow-through fractions. PRMT8 was purified further by ceramic hydroxyapatite chromatography. The column was washed with 50 mM phosphate buffer, 100 mM NaCl, 5% glycerol, 5 mM β-mercaptoethanol, pH 7.8 and PRMT8 was eluted by 100 mM phosphate in the same buffer. Protein was concentrated and buffer was exchanged to 50 mM Tris, 300 mM NaCl, 10% glycerol, 5 mM β-mercaptoethanol, pH 7.8 by ultrafiltration.
General Procedure for PRMT8 Enzyme Assays on Peptide Substrates. The assays were all performed in a buffer consisting of 20 mM Bicine (pH=7.6), 1 mM TCEP, 0.005% BSG, and 0.002% Tween 20, prepared on the day of use. […] DMSO (1 ul) was added to Columns 11, 12, 23, 24, rows A-H for the maximum signal control and 1 ul of SAH, a known product and inhibitor of PRMT8, was added to columns 11, 12, 23, 24, rows I-P for the minimum signal control. A cocktail (40 ul) containing the PRMT8 enzyme was added by Multidrop Combi (Thermo-Fisher). The compounds were allowed to incubate with PRMT8 for 30 min at room temperature, then a cocktail (10 ul) containing ^3H-SAM and peptide was added to initiate the reaction (final volume=51 ul). […] The assays were stopped by the addition of non-radiolabeled SAM (10 ul) to a final concentration of 400 uM, which dilutes the ^3H-SAM to a level where its incorporation into the peptide substrate is no longer detectable. 50 ul of the reaction in the 384-well polypropylene plate was then transferred to a 384-well Flashplate and the biotinylated peptides were allowed to bind to the streptavidin surface for at least 1 hour before being washed once with 0.1% Tween20 in a Biotek ELx405 plate washer. The plates were then read in a PerkinElmer TopCount plate reader to measure the quantity of ^3H-labeled peptide bound to the Flashplate surface, measured as disintegrations per minute (dpm) or alternatively, referred to as counts per minute (cpm).
Where dpm=disintegrations per minute, cmpd=signal in assay well, and min and max are the respective minimum and maximum signal controls.
Where top and bottom are the normally allowed to float, but may be fixed at 100 or 0 respectively in a 3-parameter fit. The Hill Coefficient normally allowed to float but may also be fixed at 1 in a 3-parameter fit. Y is the % inhibition and X is the compound concentration.

[1] = system: mono-methyl arginine in RKO cells; assay: RKO methylation assay, In Cell Western for mono-methyl arginine and DNA content; type: cell-based; conditions: Homo sapiens
[2] = In Cell Western, RKO cells, 72 hours, percent activation of mono-methyl arginine signal, read-out: EC30

T1 sequence (Q9NR22 whole entry, canonical isoform): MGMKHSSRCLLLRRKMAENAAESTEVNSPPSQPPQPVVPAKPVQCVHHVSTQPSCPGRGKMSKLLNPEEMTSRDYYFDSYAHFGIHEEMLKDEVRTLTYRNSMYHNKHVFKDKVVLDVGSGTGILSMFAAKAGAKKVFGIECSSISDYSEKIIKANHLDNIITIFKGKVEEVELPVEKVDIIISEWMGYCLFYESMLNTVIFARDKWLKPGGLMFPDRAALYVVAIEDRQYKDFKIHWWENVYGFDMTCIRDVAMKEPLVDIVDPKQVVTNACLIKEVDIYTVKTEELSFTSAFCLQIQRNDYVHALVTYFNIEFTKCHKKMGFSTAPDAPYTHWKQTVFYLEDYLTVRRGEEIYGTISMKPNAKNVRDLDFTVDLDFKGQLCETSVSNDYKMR

SMILES | IC50 (Full-length human PRMT8) [µM] | EC30 [1, 2] [µM] | EC30 ([1]; RKO, 72 h) [µM]
CNCCN(C)Cc1cn(C2CC2)nc1-c1ccc(F)cc1 [Compound 13] | > 10 | > 12 | 
CNCCN(C)Cc1cnn(C2CC2)c1-c1ccc(F)cc1 [Compound 14] | 1.01 to 3 | 3.01 to 12 | 
CNCCN(C)Cc1cn(C(C)C)nc1-c1ccc(F)cc1 [Compound 15] | > 10 | > 12 | 
CNCCN(C)Cc1cnn(C(C)C)c1-c1ccc(F)cc1 [Compound 16] | > 10 |  | > 12
CNCCN(C)Cc1cn[nH]c1-c1ccc(C#N)cc1 [Compound 17] | < 0.1 |  | > 12
CNCCN(C)Cc1cn[nH]c1-c1cc(F)cc(F)c1 [Compound 18] | 0.101 to 1 | > 12 | 
CCCc1ccc(-c2n[nH]cc2CN(C)CCNC)cc1 [Compound 20] | < 0.1 | < 3 | 
CNCCN(C)Cc1c[nH]nc1-c1cccc([N+](=O)[O-])c1 [Compound 21] | 0.101 to 1 | > 12 | 
CNCCN(C)Cc1c[nH]nc1-c1cccc(C#N)c1 [Compound 22] | 1.01 to 3 | > 12 | 
CNCCN(C)Cc1c[nH]nc1-c1ccccc1OC [Compound 23] | 3.01 to 10 | > 12 | 
CNCCN(C)Cc1c[nH]nc1-c1cccc(OC)c1 [Compound 24] | 0.101 to 1 | > 12 | 
CNCCN(C)Cc1c[nH]nc1-c1ccc(OC)cc1 [Compound 25] | 0.101 to 1 | > 12 | 
CNCCN(C)Cc1c[nH]nc1-c1cccc(O)c1 [Compound 26] | 1.01 to 3 | > 12 | 
CNCCN(C)Cc1c[nH]nc1-c1ccc(O)cc1 [Compound 27] | 0.101 to 1 | > 12 | 
CNCCN(C)Cc1c[nH]nc1-c1ccc(CO)cc1 [Compound 28] | < 0.1 | 3.01 to 12 | 
CNCCN(C)Cc1c[nH]nc1-c1ccc(C)cc1C [Compound 29] | 1.01 to 3 | > 12 | 
CNCCN(C)Cc1cn(CCCC(O)CO)nc1-c1ccc(F)cc1 (centres unmarked) [Compound 30] | > 10 | > 12 | 
CNCCN(C)Cc1cnn(CCCC(O)CO)c1-c1ccc(F)cc1 (centres unmarked) [Compound 31] | 3.01 to 10 | > 12 | 
CNCCN(C)Cc1c[nH]nc1-c1ccc(N)cc1 [Compound 33] | 1.01 to 3 | > 12 | 
CNCCN(C)Cc1c[nH]nc1-c1ccc(Oc2ccccc2)cc1 [Compound 37] | < 0.1 | < 3 | 

SMILES | IC50 (Full-length human PRMT8) [µM] | EC30 [1, 2] [µM] | EC30 ([1]; RKO, 72 h) [µM]
CNCCN(C)Cc1c[nH]nc1-c1ccccc1C(F)(F)F [Compound 38] | 3.01 to 10 | > 12 | 
CNCCN(C)Cc1c[nH]nc1-c1ccccc1OC(F)(F)F [Compound 40] | 3.01 to 10 | > 12 | 
CCNC(=O)c1cccc(-c2n[nH]cc2CN(C)CCNC)c1 [Compound 43] | 1.01 to 3 | > 12 | 
CNCCN(C)Cc1c[nH]nc1-c1ccc(C(F)(F)F)cc1 [Compound 174] | 0.101 to 1 | < 3 | 
CC(C)CC(=O)N1CCN(c2ccc(-c3n[nH]cc3CN(C)CCN)cc2)CC1 [Compound 180] | 3.01 to 10 | > 12 | 
CNCCN(C)Cc1c[nH]nc1-c1ccc(Cl)c(F)c1 [Compound 182] | 0.101 to 1 | < 3 | 
CN(CCNC1CC1)Cc1c[nH]nc1-c1ccc(C#N)cc1 [Compound 183] | 3.01 to 10 | > 12 | 
CN(CCN(C)C1CC1)Cc1c[nH]nc1-c1ccc(C#N)cc1 [Compound 184] | 3.01 to 10 | < 3 | 
CN(CCN1CCC1)Cc1c[nH]nc1-c1ccc(C#N)cc1 [Compound 185] | 3.01 to 10 | > 12 | 
CC(C)Oc1cccc(-c2n[nH]cc2CN(C)CCN)c1 [Compound 187] | 1.01 to 3 | 3.01 to 12 | 
CC(C)Oc1cc(-c2n[nH]cc2CN(C)CCN)ccc1F [Compound 188] | 1.01 to 3 | > 12 | 
CCC(=O)N1CCN(c2ccc(-c3n[nH]cc3CN(C)CCN)cc2)CC1 [Compound 189] | 1.01 to 3 | > 12 | 
CC(C)CN1C(=O)COc2ccc(-c3n[nH]cc3CN(C)CCN)cc21 [Compound 191] | 3.01 to 10 | > 12 | 
CN(CCN)Cc1c[nH]nc1-c1ccc2c(c1)OCC(=O)N2C [Compound 192] | 1.01 to 3 | > 12 | 
CC(C)CN1C(=O)COc2cc(-c3n[nH]cc3CN(C)CCN)ccc21 [Compound 193] | 0.101 to 1 | 3.01 to 12 | 
CN(CCN)Cc1c[nH]nc1-c1ccc(OCCO)cc1 [Compound 194] | 0.101 to 1 | > 12 | 
CN(CCN)Cc1c[nH]nc1-c1ccc(OCCCO)cc1 [Compound 195] | 0.101 to 1 | 3.01 to 12 | 
CN(CCN)Cc1c[nH]nc1-c1ccc2c(c1)N(C)C(=O)CO2 [Compound 196] | 1.01 to 3 | > 12 | 
CCNC(=O)c1cccc(-c2n[nH]cc2CN(C)CCN)c1 [Compound 197] | 1.01 to 3 | > 12 | 
CCN(C)C(=O)c1cccc(-c2n[nH]cc2CN(C)CCN)c1 [Compound 198] | > 10 | > 12 | 

SMILES | IC50 (Full-length human PRMT8) [µM] | EC30 [1, 2] [µM] | EC30 ([1]; RKO, 72 h) [µM]
CCn1cc(CN(C)CCNC)c(-c2ccc(OC(C)C)cc2)n1 [Compound 213] |  | > 12 | 
CNCCN(C)Cc1cn(C2CCCC2)nc1-c1ccc(OC(C)C)cc1 [Compound 214] |  | > 12 | 
CNCCN(C)Cc1cn(C2CCOC2)nc1-c1ccc(OC(C)C)cc1 (centres unmarked) [Compound 215] |  | > 12 | 
CNCCN(C)Cc1cnn(C2CCOC2)c1-c1ccc(OC(C)C)cc1 (centres unmarked) [Compound 216] |  | > 12 | 
CNCCN(C)Cc1cn(Cc2ccccc2)nc1-c1ccc(OC(C)C)cc1 [Compound 217] |  | > 12 | 
C=CCn1cc(CN(C)CCNC)c(-c2ccc(OC(C)C)cc2)n1 [Compound 218] |  | > 12 | 
C=CCn1ncc(CN(C)CCNC)c1-c1ccc(OC(C)C)cc1 [Compound 219] |  | > 12 | 
CNCCN(C)Cc1cn(C)nc1-c1ccc(OC(C)C)cc1 [Compound 243, N1-((3-(4-isopropoxyphenyl)-1-methyl-1H-pyrazol-4-yl)methyl)-N1,N2-dimethylethane-1,2-diamine] |  | < 3 | 
CNCCN(C)Cc1cn(Cc2cccnc2)nc1-c1ccc(OC(C)C)cc1 [Compound 246] |  |  | < 3
CNCCN(C)Cc1cn(Cc2ccccn2)nc1-c1ccc(OC(C)C)cc1 [Compound 247] |  | 3.01 to 12 | 
CNCCN(C)Cc1cn(CC(=O)OC)nc1-c1ccc(OC(C)C)cc1 [Compound 248] |  | > 12 | 
CNCCN(C)Cc1cn(CC(N)=O)nc1-c1ccc(OC(C)C)cc1 [Compound 251] |  | > 12 | 
CCn1ncc(CN(C)CCNC)c1-c1ccc(OC(C)C)cc1 [Compound 252] |  |  | < 3
CNCCN(C)Cc1cn(CCOC)nc1-c1ccc(OC(C)C)cc1 [Compound 253, N1-((3-(4-isopropoxyphenyl)-1-(2-methoxyethyl)-1H-pyrazol-4-yl)methyl)-N1,N2-dimethylethane-1,2-diamine hydrochloride] |  | 3.01 to 12 | 
CNCCN(C)Cc1cn(C2CCC2)nc1-c1ccc(OC(C)C)cc1 [Compound 254, N1-((1-cyclobutyl-3-(4-isopropoxyphenyl)-1H-pyrazol-4-yl)methyl)-N1,N2-dimethylethane-1,2-diamine hydrochloride] |  | < 3 | 
CNCCN(C)Cc1cnn(C2CCCC2)c1-c1ccc(OC(C)C)cc1 [Compound 255] |  |  | < 3
C=C(C)C(=O)Nc1cccc(-c2[nH]ncc2CN(C)CCNC)c1 [Compound 257] |  | > 12 | 
C=CC(=O)Nc1cccc(-c2[nH]ncc2CN(C)CCNC)c1 [Compound 258] |  | > 12 | 
